Holding throughout (test): In vitro antibiotic activity, agar dilution method (Mueller-Hinton agar, NCCLS)
Holding throughout (assay type): cell-based

The subject of assay [1] is K. pneumoniae ATCC 29665. Particulars: Klebsiella pneumoniae, ATCC29665; agar dilution, Mueller-Hinton agar; read-out: MIC for K. pneumoniae ATCC 29665. Put shortly:
(§1)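 MICs determined by agar dilution on Mueller-Hinton agar following NCCLS M7 guidance, against E. coli ATCC 25922, K. pneumoniae ATCC 29665 and P. aeruginosa PAO1.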

For assay [2], the system named is E. coli ATCC 25922. As to conditions: Escherichia coli, ATCC25922; agar dilution, Mueller-Hinton agar; read-out: MIC for E. coli ATCC 25922. The gist of the method: as §1
In assay [3] the test system is P. aeruginosa PAO1. Particulars: Pseudomonas aeruginosa, PAO1; agar dilution, Mueller-Hinton agar; read-out: MIC for P. aeruginosa PAO1. Put shortly:
as §1
(Agar dilution tests growth on a series of plates holding different concentrations.)

Consider 20 molecules from US10160724B2, “Tetrahydropyridine derivatives and their use as antibacterial agents” (Dong-A St Co., Ltd., priority 2016, dated 2018).

As usually defined, the MIC is the least concentration at which growth counts as inhibited.

Converted amounts (≈) assume the structure as drawn.

As to `CC(CCN1CC=C(c2ccc(-c3ccc(Cl)cc3)cc2)CC1)(C(=O)NO)S(C)(=O)=O` (stereo not drawn) [Example 57, 4-(4-(4′-chloro-[1,1′-biphenyl]-4-yl)-3,6-dihydropyridin-1(2H)-yl)-N-hydroxy-2-methyl-2-(methylsulfonyl)butanamide], the figures for the MIC in assay [1], in assay [2] and in assay [3] were over 16 µg/mL, 1 to 8 µg/mL (≈ 2.16 to 17.3 µM) and over 16 µg/mL, respectively.
Regarding `CC(CCN1CC=C(c2ccc(-c3ccc(F)cc3)cc2)CC1)(C(=O)NO)S(C)(=O)=O` (stereo not drawn) [Example 58, 4-(4-(4′-fluoro-[1,1′-biphenyl]-4-yl)-3,6-dihydropyridin-1(2H)-yl)-N-hydroxy-2-methyl-2-(methylsulfonyl)butanamide], the figures for the MIC in assay [1], in assay [2] and in assay [3] were 1 to 8 µg/mL (≈ 2.24 to 17.9 µM), under 1 µg/mL and over 16 µg/mL, respectively.
As to `CC(CCN1CC=C(c2ccc(-c3ccc(O)cc3)cc2)CC1)(C(=O)NO)S(C)(=O)=O` (stereo not drawn) [Example 59, N-hydroxy-4-(4-(4′-hydroxy-[1,1′-biphenyl]-4-yl)-3,6-dihydropyridin-1(2H)-yl)-2-methyl-2-(methylsulfonyl)butanamide], the MIC in assay [1] is 8 to 16 µg/mL (≈ 18 to 36 µM); in assay [2], under 1 µg/mL; in assay [3] it was 8 to 16 µg/mL (≈ 18 to 36 µM).
In the case of `COc1ccc(-c2ccc(C3=CCN(CCC(C)(C(=O)NO)S(C)(=O)=O)CC3)cc2)cc1F` (stereo not drawn) [Example 60, 4-(4-(3′-fluoro-4′-methoxy-[1,1′-biphenyl]-4-yl)-3,6-dihydropyridin-1(2H)-yl)-N-hydroxy-2-methyl-2-(methylsulfonyl)butanamide], the MIC is 8 to 16 µg/mL (≈ 16.8 to 33.6 µM) in assay [1], under 1 µg/mL in assay [2] and over 16 µg/mL in assay [3].
For `CC(CCN1CC=C(c2ccc(-c3cccnc3)cc2)CC1)(C(=O)NO)S(C)(=O)=O` (stereo not drawn) [Example 61, N-hydroxy-2-methyl-2-(methylsulfonyl)-4-(4-(4-(pyridin-3-yl)phenyl)-3,6-dihydropyridin-1(2H)-yl)butanamide], in that order: over 16 µg/mL, 1 to 8 µg/mL (≈ 2.33 to 18.6 µM) and 1 to 8 µg/mL (≈ 2.33 to 18.6 µM).
For `CC(CCN1CC=C(c2ccc(-c3ccc(F)nc3)cc2)CC1)(C(=O)NO)S(C)(=O)=O` (stereo not drawn) [Example 62, 4-(4-(4-(6-fluoropyridin-3-yl)phenyl)-3,6-dihydropyridin-1(2H)-yl)-N-hydroxy-2-methyl-2-(methylsulfonyl)butanamide] the same measures were 1 to 8 µg/mL (≈ 2.23 to 17.9 µM), under 1 µg/mL and 1 to 8 µg/mL (≈ 2.23 to 17.9 µM).
Regarding `CC(CCN1CC=C(c2ccc(-c3ccoc3)cc2)CC1)(C(=O)NO)S(C)(=O)=O` (stereo not drawn) [Example 63, 4-(4-(4-(furan-3-yl)phenyl)-3,6-dihydropyridin-1(2H)-yl)-N-hydroxy-2-methyl-2-(methylsulfonyl)butanamide], the MIC in assay [1] was under 1 µg/mL; in assay [2] it was under 1 µg/mL; in assay [3] it was 8 to 16 µg/mL (≈ 19.1 to 38.2 µM).
As to `CC(CCN1CC=C(c2ccc(-c3ccc(S(C)(=O)=O)cc3)cc2)CC1)(C(=O)NO)S(C)(=O)=O` (stereo not drawn) [Example 64, N-hydroxy-2-methyl-2-(methylsulfonyl)-4-(4-(4′-(methylsulfonyl)-[1,1′-biphenyl]-4-yl)-3,6-dihydropyridin-1(2H)-yl)butanamide], the minimal inhibitory concentration (MIC) is 1 to 8 µg/mL (≈ 1.97 to 15.8 µM) in assay [1], under 1 µg/mL in assay [2] and 1 to 8 µg/mL (≈ 1.97 to 15.8 µM) in assay [3].
In the case of `CC(CCN1CC=C(c2ccc(-c3ccc(CO)cc3)cc2)CC1)(C(=O)NO)S(C)(=O)=O` (stereo not drawn) [Example 65, N-hydroxy-4-(4-(4′-(hydroxymethyl)-[1,1′-biphenyl]-4-yl)-3,6-dihydropyridin-1(2H)-yl)-2-methyl-2-(methylsulfonyl)butanamide], the MIC was 8 to 16 µg/mL (≈ 17.4 to 34.9 µM) in assay [1], under 1 µg/mL in assay [2] and over 16 µg/mL in assay [3].
Regarding `CC(CCN1CC=C(c2ccc(-c3ccc(C#N)cc3)cc2)CC1)(C(=O)NO)S(C)(=O)=O` (stereo not drawn) [Example 66, 4-(4-(4′-cyano-[1,1′-biphenyl]-4-yl)-3,6-dihydropyridin-1(2H)-yl)-N-hydroxy-2-methyl-2-(methylsulfonyl)butanamide], the figures for the MIC in assay [1], in assay [2] and in assay [3] were 1 to 8 µg/mL (≈ 2.2 to 17.6 µM), under 1 µg/mL and over 16 µg/mL, respectively.
`CCCCCc1ccc(-c2ccc(C3=CCN(CCC(C)(C(=O)NO)S(C)(=O)=O)CC3)cc2)cc1` (stereo not drawn) [Example 67, N-hydroxy-2-methyl-2-(methylsulfonyl)-4-(4-(4′-pentyl-[1,1′-biphenyl]-4-yl)-3,6-dihydropyridin-1(2H)-yl)butanamide]: the MIC in assay [1] is over 16 µg/mL; in assay [2] it was 8 to 16 µg/mL (≈ 16 to 32.1 µM); in assay [3], over 16 µg/mL.
In the case of `CC(CCN1CC=C(c2ccc(-c3ccc(S(=O)(=O)N4CCC4)cc3)cc2)CC1)(C(=O)NO)S(C)(=O)=O` (stereo not drawn) [Example 68, 4-(4-(4′-(azetidin-1-ylsulfonyl)-[1,1′-biphenyl]-4-yl)-3,6-dihydropyridin-1(2H)-yl)-N-hydroxy-2-methyl-2-(methylsulfonyl)butanamide], the MIC is 1 to 8 µg/mL (≈ 1.83 to 14.6 µM) in assay [1], under 1 µg/mL in assay [2] and 1 to 8 µg/mL (≈ 1.83 to 14.6 µM) in assay [3].
As for `CC(CCN1CC=C(c2ccc(-c3ccc(OS(C)(=O)=O)cc3)cc2)CC1)(C(=O)NO)S(C)(=O)=O` (stereo not drawn) [Example 69, 4′-(1-(4-(hydroxyamino)-3-methyl-3-(methylsulfonyl)-4-oxobutyl)-1,2,3,6-tetrahydropyridin-4-yl)-[1,1′-biphenyl]-4-yl methanesulfonate], the results for the MIC in assay [1], in assay [2] and in assay [3] were under 1 µg/mL, under 1 µg/mL and 8 to 16 µg/mL, respectively.
In the case of `CC(CCN1CC=C(c2ccc(-c3ccsc3)cc2)CC1)(C(=O)NO)S(C)(=O)=O` (stereo not drawn) [Example 70, N-hydroxy-2-methyl-2-(methylsulfonyl)-4-(4-(4-(thiophen-3-yl)phenyl)-3,6-dihydropyridin-1(2H)-yl)butanamide], the MIC was under 1 µg/mL in assay [1], under 1 µg/mL in assay [2] and over 16 µg/mL in assay [3].
In the case of `COc1ccsc1-c1ccc(C2=CCN(CCC(C)(C(=O)NO)S(C)(=O)=O)CC2)cc1.Cl` (stereo not drawn) [Example 71, N-hydroxy-4-(4-(4-(3-methoxythiophen-2-yl)phenyl)-3,6-dihydropyridin-1(2H)-yl)-2-methyl-2-(methylsulfonyl)butanamide hydrochloride], the MIC was under 1 µg/mL in assay [1], under 1 µg/mL in assay [2] and over 16 µg/mL in assay [3].
With `Cc1csc(-c2ccc(C3=CCN(CCC(C)(C(=O)NO)S(C)(=O)=O)CC3)cc2)c1.Cl` (stereo not drawn) [Example 72, N-hydroxy-2-methyl-2-(methylsulfonyl)-4-(4-(4-(4-methylthiophen-2-yl)phenyl)-3,6-dihydropyridin-1(2H)-yl)butanamide hydrochloride], the MIC in assay [1] was under 1 µg/mL; in assay [2], under 1 µg/mL; in assay [3], over 16 µg/mL.
With `CCS(=O)(=O)c1ccc(-c2ccc(C3=CCN(CCC(C)(C(=O)NO)S(C)(=O)=O)CC3)cc2)cc1.Cl` (stereo not drawn) [Example 73, 4-(4-(4′-(ethylsulfonyl)-[1,1′-biphenyl]-4-yl)-3,6-dihydropyridin-1(2H)-yl)-N-hydroxy-2-methyl-2-(methylsulfonyl)butanamide hydrochloride], the minimum inhibitory concentration (MIC) is 1 to 8 µg/mL in assay [1], under 1 µg/mL in assay [2] and 1 to 8 µg/mL in assay [3].
Consider `CC(CCN1CC=C(c2ccc(-c3ccc(CN4CCOCC4)cc3)cc2)CC1)(C(=O)NO)S(C)(=O)=O` (stereo not drawn) [Example 74, N-hydroxy-2-methyl-2-(methylsulfonyl)-4-(4-(4′-(morpholinomethyl)-[1,1′-biphenyl]-4-yl)-3,6-dihydropyridin-1(2H)-yl)butanamide], for which the MIC is under 1 µg/mL in assay [1], under 1 µg/mL in assay [2] and 1 to 8 µg/mL (≈ 1.9 to 15.2 µM) in assay [3].
For the molecule `COCC#Cc1ccc(C2=CCN(CCC(C)(C(=O)NO)S(C)(=O)=O)CC2)cn1` (stereo not drawn) [Example 75, N-hydroxy-4-(6-(3-methoxyprop-1-yn-1-yl)-3′,6′-dihydro-[3,4′-bipyridin]-1′(2′H)-yl)-2-methyl-2-(methylsulfonyl)butanamide], the MIC in assay [1], in assay [2] and in assay [3] was over 16 µg/mL each time.
`CC(CN1CC=C(c2ccc(-c3ccccc3)cc2)CC1)(C(=O)NO)S(C)(=O)=O` (stereo not drawn) [Example 76, 3-(4-([1,1′-biphenyl]-4-yl)-3,6-dihydropyridin-1(2H)-yl)-N-hydroxy-2-methyl-2-(methylsulfonyl)propanamide]: the MIC in assay [1], in assay [2] and in assay [3] was over 16 µg/mL in each case.
